Patent US20110129917A1, “CELL ISOLATION METHOD” (priority 2007, published 2011)

Tested on: microorganisms in soil
Assay: effect of cell enlargers upon microorganisms in rice paddy soil, observed under a fluorescent microscope after CFDA-AM staining
Type: cell-based
Conditions: three cell enlargers added together: nalidixic acid 80 μg/g of soil, pipemidic acid 40 μg/g, piromidic acid 40 μg/g; anaerobic, 30° C., 24 hours; comparison without enlargers showed only round or oval cells
Protocol: As a laboratory model of rice paddy soil where denitrification is active, a 10 mL vial bottle was filled with slightly less than 10 mL of soil (rice paddy soil from Tanashi Farm of the University of Tokyo), a selective substrate of denitrificans (sodium succinate, approximately 5 g/L) and sodium nitrate (approximately 5 g/L) and the gas phase was completely substituted with argon-acetylene. Culture was then carried out anaerobically at 30° C. […] A fluorescent dye CFDA-AM (final concentration 50 μM) was added to the cultured product and the product was observed under a fluorescent microscope (excited in blue, irradiated with blue light) (FIG. 3(b)). In combination, as a comparative example, the fluorescent dye was added and observation was carried out under a microscope with no cell enlargers added (FIG. 3(a)).

SMILES | effect of cell enlargers upon microorganisms in soil (cell shape and size under the microscope)
CCn1cc(C(=O)O)c(=O)c2cnc(N3CCCC3)nc21 [piromidic acid] | elongated and larger cells were also observable
CCn1cc(C(=O)O)c(=O)c2cnc(N3CCNCC3)nc21 [pipemidic acid] | elongated and larger cells were also observable
